Key:
Assay type in all cases: biochemical
cathepsin L = target: T1, cathepsin L (Homo sapiens, UniProt P07711); assay: Cathepsin L enzyme inhibition in vitro (kinetic fluorescence assay); settings: cathepsin L isolated from human liver vs calpain I
T1 construct: cathepsin L—isolated from human liver (Calbiochem #219402); purchased Calbiochem 219402; host or cells: human liver (tissue-derived)
Summary of the method: (§1)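 Cathepsin B (0.25 nM, human liver) with 100 μM Z-Phe-Arg-AMC; L (1 nM, human liver) with 2 μM Z-Phe-Arg-AMC; S (0.5 nM, recombinant) with 20 μM Z-Val-Val-Arg-AMC. pH 6.0 MES buffer, 2.5 mM L-cysteine, room temperature. Kinetic fluorescence (ex 390/em 460 nm); apparent Ki from IC50 by Cheng-Prusoff.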

cathepsin B = target: T2, cathepsin B (Homo sapiens, UniProt P07858); assay: Cathepsin B enzyme inhibition in vitro (kinetic fluorescence assay); settings: cathepsin B isolated from human liver vs calpain I
T2 construct: cathepsin B—isolated from human liver (Calbiochem #219362); purchased Calbiochem 219362; host or cells: human liver (tissue-derived)
Summary of the method: as §1

cathepsin K = target: T3, cathepsin K (Homo sapiens, UniProt P43235); assay: Cathepsin K enzyme inhibition in vitro (kinetic fluorescence assay); settings: cathepsin K activated from recombinant human procathepsin K vs calpain I
T3 construct: purchased Calbiochem 342001; host or cells: E. coli
T3 sequence (P43235 115-329): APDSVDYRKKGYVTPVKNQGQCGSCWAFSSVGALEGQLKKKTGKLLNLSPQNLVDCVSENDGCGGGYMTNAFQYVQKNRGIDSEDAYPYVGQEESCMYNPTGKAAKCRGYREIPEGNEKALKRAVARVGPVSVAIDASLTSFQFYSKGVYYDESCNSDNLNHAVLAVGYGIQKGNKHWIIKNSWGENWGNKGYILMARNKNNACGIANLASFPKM

cathepsin S = target: T4, cathepsin S (Homo sapiens, UniProt P25774); assay: Cathepsin S enzyme inhibition in vitro (kinetic fluorescence assay); settings: recombinant human cathepsin S vs calpain I
T4 construct: purchased Calbiochem 219343; host or cells: E. coli
T4 sequence (P25774 115-331): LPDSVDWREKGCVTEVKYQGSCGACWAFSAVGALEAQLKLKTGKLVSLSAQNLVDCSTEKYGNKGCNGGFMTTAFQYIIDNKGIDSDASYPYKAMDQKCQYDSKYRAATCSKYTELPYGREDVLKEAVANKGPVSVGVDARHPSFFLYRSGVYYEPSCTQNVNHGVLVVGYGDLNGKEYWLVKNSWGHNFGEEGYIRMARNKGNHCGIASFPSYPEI
Summary of the method: as §1

T1 sequence (P07711 114-333): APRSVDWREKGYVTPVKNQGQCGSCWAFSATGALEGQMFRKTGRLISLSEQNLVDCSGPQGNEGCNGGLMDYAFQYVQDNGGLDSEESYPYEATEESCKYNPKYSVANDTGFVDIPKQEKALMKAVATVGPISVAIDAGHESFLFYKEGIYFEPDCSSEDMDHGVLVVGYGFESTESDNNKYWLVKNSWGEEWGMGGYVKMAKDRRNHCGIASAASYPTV

Row | SMILES | Sel cat. L: Ki(cathepsin L)/Ki(calpain) ratio (cathepsin L) | Sel cat. B: Ki(cathepsin B)/Ki(calpain) ratio (cathepsin B) | Sel cat. K: Ki(cathepsin K)/Ki(calpain) ratio (cathepsin K) | Sel cat. S: Ki(cathepsin S)/Ki(calpain) ratio (cathepsin S)
1 | NC(=O)C(=O)C(Cc1cccc(F)c1)NC(=O)c1cccnc1-n1ccc(-c2ccccc2OC(F)(F)F)n1 (centres unmarked) [Example 162, N-{3-Amino-1-[(3-fluorophenyl)methyl]-2,3-dioxopropyl}-2-(3-{2-[(trifluoromethyl)oxy]phenyl}-1H-pyrazol-1-yl)pyridine-3-carboxamide] | ++ (++ means a Ki(cathepsin L)/Ki(calpain) ratio of ≧50) | ++ (++ means a Ki(cathepsin B)/Ki(calpain) ratio of ≧30) | ++ (++ means a Ki(cathepsin K)/Ki(calpain) ratio of ≧30) | ++ (++ means a Ki(cathepsin S)/Ki(calpain) ratio of ≧100)
2 | NC(=O)C(=O)C(Cc1ccccc1)NC(=O)c1cccnc1-n1ccc(-c2cccs2)n1 (centres unmarked) [Example 55, N-(3-Amino-1-benzyl-2,3-dioxopropyl)-2-[3-(2-thienyl)-1H-pyrazol-1-yl]nicotinamide] | ++ (++ means a Ki(cathepsin L)/Ki(calpain) ratio of ≧50) | + (+ means 10≦Ki(cathepsin B)/Ki(calpain)<30) | + (+ means 10≦Ki(cathepsin K)/Ki(calpain)<30) | ++ (++ means a Ki(cathepsin S)/Ki(calpain) ratio of ≧100)
3 | NC(=O)C(=O)C(Cc1ccccc1)NC(=O)c1cccnc1-n1cc2c(n1)-c1ccccc1S(=O)(=O)C2 (centres unmarked) [Example 174, N-[3-Amino-2,3-dioxo-1-(phenylmethyl)propyl]-2-(5,5-dioxidothiochromeno[4,3-c]pyrazol-2(4H)-yl)pyridine-3-carboxamide] | ++ (++ means a Ki(cathepsin L)/Ki(calpain) ratio of ≧50) | + (+ means 10≦Ki(cathepsin B)/Ki(calpain)<30) | + (+ means 10≦Ki(cathepsin K)/Ki(calpain)<30) | ++ (++ means a Ki(cathepsin S)/Ki(calpain) ratio of ≧100)
4 | NC(=O)C(=O)C(Cc1ccc(OCc2ccccc2)cc1)NC(=O)c1cccnc1-n1ccc(-c2ccccc2)n1 (centres unmarked) [Example 127, N-[3-Amino-2,3-dioxo-1-({4-[(phenylmethyl)oxy]phenyl}methyl)propyl]-2-(3-phenyl-1H-pyrazol-1-yl)pyridine-3-carboxamide] | ++ (++ means a Ki(cathepsin L)/Ki(calpain) ratio of ≧50) | ++ (++ means a Ki(cathepsin B)/Ki(calpain) ratio of ≧30) | ++ (++ means a Ki(cathepsin K)/Ki(calpain) ratio of ≧30) | ++ (++ means a Ki(cathepsin S)/Ki(calpain) ratio of ≧100)
5 | CS(=O)(=O)Nc1cnc(-n2ccc(-c3ccccc3)n2)c(C(=O)NC(Cc2ccccc2)C(=O)C(N)=O)c1 (centres unmarked) [Example 158, N-[3-Amino-2,3-dioxo-1-(phenylmethyl)propyl]-5-[(methylsulfonyl)amino]-2-(3-phenyl-1H-pyrazol-1-yl)pyridine-3-carboxamide] | ++ (++ means a Ki(cathepsin L)/Ki(calpain) ratio of ≧50) | ++ (++ means a Ki(cathepsin B)/Ki(calpain) ratio of ≧30) | ++ (++ means a Ki(cathepsin K)/Ki(calpain) ratio of ≧30) | ++ (++ means a Ki(cathepsin S)/Ki(calpain) ratio of ≧100)
6 | NC(=O)C(=O)C(Cc1ccc(Cl)cc1)NC(=O)c1cccnc1-n1ccc(-c2ccc(F)cc2)n1 (centres unmarked) [Example 67, N-[3-Amino-1-(4-chlorobenzyl)-2,3-dioxopropyl]-2-[3-(4-fluorophenyl)-1H-pyrazol-1-yl]nicotinamide] | ++ (++ means a Ki(cathepsin L)/Ki(calpain) ratio of ≧50) | + (+ means 10≦Ki(cathepsin B)/Ki(calpain)<30) | + (+ means 10≦Ki(cathepsin K)/Ki(calpain)<30) | ++ (++ means a Ki(cathepsin S)/Ki(calpain) ratio of ≧100)
7 | NC(=O)C(=O)C(Cc1ccccc1)NC(=O)c1cccnc1-n1ccc(-c2cccc(C(F)(F)F)c2)n1 (centres unmarked) [Example 83, N-(3-Amino-1-benzyl-2,3-dioxopropyl)-2-{3-[3-(trifluoromethyl)phenyl]-1H-pyrazol-1-yl}nicotinamide] | ++ (++ means a Ki(cathepsin L)/Ki(calpain) ratio of ≧50) | + (+ means 10≦Ki(cathepsin B)/Ki(calpain)<30) | ++ (++ means a Ki(cathepsin K)/Ki(calpain) ratio of ≧30) | ++ (++ means a Ki(cathepsin S)/Ki(calpain) ratio of ≧100)
8 | NC(=O)C(=O)C(Cc1ccccc1)NC(=O)c1cccnc1-n1cc2c(n1)-c1ccccc1CC2 (centres unmarked) [Example 63, N-(3-Amino-1-benzyl-2,3-dioxopropyl)-2-(4,5-dihydro-2H-benzo[g]indazol-2-yl)nicotinamide] | ++ (++ means a Ki(cathepsin L)/Ki(calpain) ratio of ≧50) | + (+ means 10≦Ki(cathepsin B)/Ki(calpain)<30) | + (+ means 10≦Ki(cathepsin K)/Ki(calpain)<30) | ++ (++ means a Ki(cathepsin S)/Ki(calpain) ratio of ≧100)
9 | COc1ccc(-c2ccn(-c3ncccc3C(=O)NC(Cc3ccccc3)C(=O)C(N)=O)n2)cc1 (centres unmarked) [Example 48, N-(3-Amino-1-benzyl-2,3-dioxopropyl)-2-[3-(4-methoxyphenyl)-1H-pyrazol-1-yl]nicotinamide] | ++ (++ means a Ki(cathepsin L)/Ki(calpain) ratio of ≧50) | + (+ means 10≦Ki(cathepsin B)/Ki(calpain)<30) | + (+ means 10≦Ki(cathepsin K)/Ki(calpain)<30) | ++ (++ means a Ki(cathepsin S)/Ki(calpain) ratio of ≧100)
10 | NC(=O)C(=O)C(Cc1ccccc1)NC(=O)c1cccnc1-n1ccc(-c2ccc(N3CCCC3)cc2)n1 (centres unmarked) [Example 69, N-(3-Amino-1-benzyl-2,3-dioxopropyl)-2-[3-(4-pyrrolidin-1-ylphenyl)-1H-pyrazol-1-yl]nicotinamide] | ++ (++ means a Ki(cathepsin L)/Ki(calpain) ratio of ≧50) | + (+ means 10≦Ki(cathepsin B)/Ki(calpain)<30) | + (+ means 10≦Ki(cathepsin K)/Ki(calpain)<30) | ++ (++ means a Ki(cathepsin S)/Ki(calpain) ratio of ≧100)
11 | NC(=O)C(=O)C(Cc1ccccc1)NC(=O)c1cccnc1-n1ccc(-c2ccc(F)cc2Cl)n1 (centres unmarked) [Example 71, N-(3-Amino-1-benzyl-2,3-dioxopropyl)-2-[3-(2-chloro-4-fluorophenyl)-1H-pyrazol-1-yl]nicotinamide] | ++ (++ means a Ki(cathepsin L)/Ki(calpain) ratio of ≧50) | ++ (++ means a Ki(cathepsin B)/Ki(calpain) ratio of ≧30) | ++ (++ means a Ki(cathepsin K)/Ki(calpain) ratio of ≧30) | ++ (++ means a Ki(cathepsin S)/Ki(calpain) ratio of ≧100)

— patent US7799809B2, “Carboxamide compounds and their use as calpain inhibitors” (Abbott GmbH & Co. KG, priority 2006, dated 2010)
